Assay results published in publication PMC10373114, “CDK2 regulates collapsed replication fork repair in CCNE1-amplified ovarian cancer cells via homologous recombination” (NAR Cancer, 2023).

How the values were obtained:
kinases tested (n = 468) = assay: KINOMEscan kinome selectivity; format: binding; settings: fraction of kinases with <10% of control at 3 μM among 468 kinases tested
CDK7/CycH1/MNAT1 = CDK7/CycH1/MNAT1 (Homo sapiens, UniProt P50613); assay: ATP-competition caliper enzyme assay; format: biochemical; settings: 1 mM ATP
OVCAR-3 cells = assay: CyQuant proliferation assay; format: cell-based, human; settings: proliferation, 5 days, mean of two independent replicates
Procedure: (§1) OVCAR-3, COV644, or MCF-7 cells were seeded at 1000 cells/well in 384-well black, clear bottom plates and allowed to adhere overnight at 37°C/5% CO2. The following day, cells were treated with compound in a 10-point dose response, 1:4 dilutions. After 5 days of incubation, CyQuant Direct Proliferation Assay was performed according to the manufacturer's instructions. Data were processed with GraphPad Prism using a four-parameter fit to calculate IC50.

OVCAR-3 xenografts = assay: OVCAR-3 xenograft tumor growth inhibition; format: in vivo, NOD-SCID mice
Procedure: Female NOD-SCID mice were purchased from Shanghai Lingchang BioTech Co., Ltd at 6–8 weeks old. Mice were housed in solid bottom polycarbonate ventilated cages at a temperature of 20–26°C in 40–70% humidity. Mice were kept on a 12-h light,
Twelve-hour dark cycle with regularly changed 100% filtered air. Municipal water and rodent diet were provided ad libitum. The general health of the animals was monitored through gross observation, regular body weight measurement, and monitoring of food and water intake. All procedures related to animal handling, care, and treatment were performed according to the protocol approved by the Institutional Animal Care and Use Committee of Shanghai Chempartner following the guidance of the Association for Assessment and Accreditation of Laboratory Animal Care (AAALAC).
OVCAR-3 cells were passaged through mice once, and a cell line was rederived from the tumor, named ‘T2A.’ OVCAR-3 T2A cells were cultured in RPMI 1640 media supplemented with 20% FBS and 0.01 mg/ml insulin. To establish the OVCAR-3 xenograft model, 6 × 10^6 cells per mouse were implanted subcutaneously into the right hind flank of NOD-SCID female mice. Cells were suspended in 50% Matrigel and 50% RPMI 1640 media serum free media prior to implantation.
In OVCAR-3 tumor growth inhibition studies, animals were randomized and treatment began when tumors reached ∼200 mm^3 in size (n = at least eight/group). […] Etoposide was prepared in 5% DMSO + 40% PEG300 + 5%Tween 80 + 50%dd water and dosed intraperitoneally QD at 1.25 mg/kg for 3 days for each week of the study. Olaparib was prepared in 10% HP-ß-CD in water and dosed intraperitoneally QD at 50 mg/kg. Tumor sizes and body weight were measured twice weekly. Tumor sizes were measured in two dimensions using a caliper, and the volume (mm^3) was calculated using the formula: V = 0.5 a x b^2 where a and b are the long and short diameters of the tumor, respectively.

CDK7/CycH1 = target: T1, CDK7/CycH1 (Homo sapiens, UniProt P50613); assay: NanoBRET target engagement assay; format: binding; settings: HEK-293T cells transfected with CDK complex
T1 construct: expressed in transfected cells; host or cells: HEK293
Procedure: HEK293 cells were prepared to a final concentration of 100 000 cells/ml in 1% fetal bovine serum (FBS) Opti-MEM. Transfection mixtures were prepared with 1 μg of plasmid encoding NanoLuc-fused CDK and 9 μg of plasmid encoding cyclin, diluted in 1 ml Opti-MEM. FuGENE HD (Promega) was added to transfection mixture at a ratio of 30 μl/1 ml. After liposome formation, the lipid:DNA complex was added at a 1:20 ratio to HEK293 cells in suspension. Cells were plated in 384-well tissue culture plates and incubated overnight (20–30 h) at 37°C/5% CO2. Compounds were prepared from DMSO stock solutions and added to cell plates with a final top concentration of 10 000 nM. NanoBRET tracer solution was prepared from 100X tracer solution. For CDK1/cyclin B1, CDK9/cyclin T1, and CDK2/cyclin E1 assays, tracer K10 was used at a final concentration of 0.5 μM, 0.250 μM, and 0.125 μM, respectively. For CDK4/cyclin D1, and CDK6/cyclin D3, tracer K7 was used at a final concentration of 0.0625 μM. For CDK7/cyclin H1, tracer K7 was used at a final concentration of 0.5 μM. The plate was incubated at 37°C/5% CO2 for 2 h. NanoBRET substrate solution was prepared 15 min prior to the assay endpoint using serum-free OptiMEM. […] The plate was then shaken and read using the Perkin Elmer Envision plate reader. The donor emission was measured at 450 nm, followed by acceptor emission at 610 nm. […]

MCF-7 cells = assay: CyQuant proliferation assay; format: cell-based; settings: proliferation, 5 days, CyQuant; mean of two independent replicates; read-out: MCF-7 IC50
Procedure: as §1

[1] = Pharmacokinetics (plasma concentrations after oral dose); format: in vivo, NOD-SCID mice; settings: single p.o. dose
Text: (A) Chemical structures of BLU2256. […]
family members. Error bars represent SD of at least duplicate independent experiments. (D) NanoBret assessment of BLU2256 target engagement in indicated CDK complexes expressed in HEK-293 cells. Error bars represent SD of at least duplicate independent experiments. (E) Dose-response curve for pRb T821/826 […]
Error bars represent SD of at least duplicate independent experiments. (F) Dose-response curve for pLamin S22 inhibition by BLU1851 in OVCAR-3 and COV644 cells. Error bars represent SD of duplicate independent experiments. (G) Do se -response curves in MCF-7, OVCAR-3 cells. Cells were treated with a 10- point dose response of indicated compounds and incubated for 5 days before CyQuant assay was performed. […]
Contemporaneously, cells were transfected with a 3X-FLAG donor plasmid plus a plasmid containing Cas9 and a single guide RNA (sgRNA), scramble control (sgScr), or an sgRNA targeting beta- actin (sgACTB). […] The percent body weight change is calculated by normalizing to day 0 per treatment group. […] (M) Quantification of Western blot for pRb S807/811 normalized individually to actin and then to vehicle group to calculate % inhibition. […]
(N) Relative body weight over treatment time. The percent body weight change is calculated by normalizing to day 0 per treatment group. […] The percent body weight change is calculated by normalizing to day 0 per treatment group. […]

Sequence of CDK7/CycH1/MNAT1 (P50613 whole entry): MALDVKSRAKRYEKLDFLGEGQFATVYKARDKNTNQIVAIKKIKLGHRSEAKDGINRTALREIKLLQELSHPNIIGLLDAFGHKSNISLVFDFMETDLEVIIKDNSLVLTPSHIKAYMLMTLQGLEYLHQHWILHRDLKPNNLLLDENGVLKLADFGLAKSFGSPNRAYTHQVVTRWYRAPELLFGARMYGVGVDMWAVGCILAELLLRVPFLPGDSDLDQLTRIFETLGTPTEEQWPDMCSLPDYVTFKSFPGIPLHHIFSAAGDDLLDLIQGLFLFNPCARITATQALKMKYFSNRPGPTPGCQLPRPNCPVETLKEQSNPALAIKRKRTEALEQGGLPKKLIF
Sequence of CDK7/CycH1/MNAT1 (P51946 whole entry partner): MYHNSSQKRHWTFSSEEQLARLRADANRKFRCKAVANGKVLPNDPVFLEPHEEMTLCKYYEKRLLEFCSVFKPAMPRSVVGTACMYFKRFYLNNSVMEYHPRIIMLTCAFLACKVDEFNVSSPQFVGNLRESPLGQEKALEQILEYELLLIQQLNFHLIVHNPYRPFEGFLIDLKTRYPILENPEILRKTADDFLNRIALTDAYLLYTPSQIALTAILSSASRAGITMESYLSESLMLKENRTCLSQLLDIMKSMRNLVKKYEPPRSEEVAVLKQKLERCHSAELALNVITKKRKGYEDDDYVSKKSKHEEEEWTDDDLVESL
Sequence of CDK7/CycH1/MNAT1 (P51948 whole entry partner): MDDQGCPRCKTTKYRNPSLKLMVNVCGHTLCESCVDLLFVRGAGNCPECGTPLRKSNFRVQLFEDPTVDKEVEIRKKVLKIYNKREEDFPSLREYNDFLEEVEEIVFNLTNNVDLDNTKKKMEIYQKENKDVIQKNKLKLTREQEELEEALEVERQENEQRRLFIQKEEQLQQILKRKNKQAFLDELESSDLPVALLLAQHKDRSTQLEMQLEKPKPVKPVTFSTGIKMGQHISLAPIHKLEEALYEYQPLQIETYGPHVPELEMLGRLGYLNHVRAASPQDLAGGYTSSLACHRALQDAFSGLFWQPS
T1 sequence (P50613 whole entry): as the sequence (P50613 whole entry) above
T1 sequence (P51946 whole entry partner): as the sequence (P51946 whole entry partner) above

- IC50 (CDK7/CycH1/MNAT1): > 6670 nM
- IC50 (OVCAR-3 cells): 82.5 nM
- IC50 (CDK7/CycH1): 4420 nM
- IC50 (MCF-7 cells): 1280 nM
- pharmacokinetics compared with BLU1851 [1]: superior pharmacokinetics
SMILES: CC(C)(O)Cn1cc(-c2nc(Nc3ccc(S(N)(=O)=O)cc3F)ncc2C(F)(F)F)cn1 [BLU2256]
- Kinome S (10) (kinases tested (n = 468)): 0.040
- tumor growth inhibition (OVCAR-3 xenografts; 3 mg/kg QD PO): sub-efficacious with minor tumor growth inhibition
- tumor growth inhibition (OVCAR-3 xenografts; 5 mg/kg BID PO): efficacious dose, inducing tumor stasis
- body weight (OVCAR-3 xenografts; dose titration, PO): without a change in body weight
- tumor growth inhibition (OVCAR-3 xenografts; dose titration, PO QD for 3 weeks): dose-dependent tumor growth inhibition
- inhibition of RB1 phosphorylation in tumors (OVCAR-3 xenografts; on-target activity): dose and time-dependent
